System: high fat diet ZDF rats
Test: NAFLD/NASH animal model, high fat diet ZDF rats
Format: in vivo, rat
Conditions: high fat diet ZDF male rats; all three doses (0.3, 1.0, 3 mg/kg) PO q.d. for 5 weeks
Experimental: Twelve week old ZDF male rats (n=6 per group) were acclimated for 3 weeks prior to study initiation then fed with either a high fat (D12492+0.5% added cholesterol with 55% wt/vol fructose in drinking water) or low fat (DL12405J) diets. The compound of Example 10 above, vehicle, or pioglitizone were administered by oral gavage q.d. for 5 weeks as described in Table 1.
Body weights were recorded weekly, and blood samples were collected from all animals at the end of weeks 4, 5, 6 and 7 following an overnight fast, and triglycerides, cholesterol, AST, ALT, insulin, and BG were measured in singlet. After week 8, the livers were harvested from all animals and weighed. The left lobe was placed in 10% NBF for NASH scoring by PAI (H % E staining, Oil Red O staining and Sirius Red staining). One half of the right lobe was snap-frozen for qPCR (to quantify type 1 collagen, insulin receptor, IGF-1, ceramide synthase 2, sphingomyelin phosphodiesterase 3, MCP-1 and IL-6). The remaining right lobe was snap-frozen for estimation of liver triglycerides and cholesterol.

CCc1oc(-c2ccc(OC)cc2)nc1CCOc1ccc2c(c1)CC[C@H]2CC(=O)O [Example 10, (S)-2-(5-(2-(5-ethyl-2-(4-methoxyphenyl)oxazol-4-yl)ethoxy)-2,3-dihydro-1H-inden-1-yl)acetic acid]
protection from NASH like symptoms: protection from NASH like symptoms

From US20180117013A1, “METHODS OF TREATING LIVER DISEASE USING INDANE ACETIC ACID DERIVATIVES” (T3D THERAPEUTICS, INC., priority 2015, published 2018)
